According to patent US20260325654A1, “METHODS AND COMPOSITIONS FOR TARGETED PROTEIN DEGRADATION” (Ranok Therapeutics (Hangzhou) Co. Ltd., priority 2023, published 2026):

Legend:
AGS = assay: CellTiter-Glo Reagent cancer cell line proliferation assay, AGS; format: cell-based, human; details: Homo sapiens, 24 h, KRAS(G12D) heterozygous
How it was run: (§1)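 Cells were seeded at 4,000 per well, grown 24 hr at 37° C./5% CO2, then exposed 24 hr to 3-fold dilutions from 20 μM to 1.02 nM (0.5% DMSO final). Viability was read with CellTiter-Glo luminescence, and IC50 values were calculated.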

A427 = assay: CellTiter-Glo Reagent cancer cell line proliferation assay, A427; format: cell-based; details: Homo sapiens, A-427; A427, KRAS(G12D) heterozygous, 24 hr
Description: (§2) The following cancer cell lines were employed: • AsPC-1 human pancreatic adenocarcinoma, homozygous KRAS(G12D), (ATCC, #CRL-1682); A-427 human lung carcinoma, heterozygous KRAS(G12D), (ATCC, #HTB-53); AGS human gastric adenocarcinoma, heterozygous KRAS(G12D), (ATCC, #CRL-1739); GP2D human colon adenocarcinoma, heterozygous KRAS(G12D), (Sigma Aldrich, 95090714); SW1990 human pancreatic adenocarcinoma, homozygous KRAS(G12D), (ATCC, #CRL2172); LU65A human lung giant cell carcinoma, heterozygous KRAS(G12C), (JCRB Cell Bank, #JCRB0054); NCIH727 human lung carcinoid, heterozygous KRAS(G12V), (ATCC, #CRL-5815); MKN1 human gastric adenosquamous carcinoma KRAS (wt), (JCRB Cell Bank, #JCRB0252). Cell lines were cultured according to ATCC, JCRB and Sigma Aldrich recommendations.
(§3) Cells were plated in 96-well tissue culture plates at 4,000 cells/well and incubated at 37° C./5% CO2 for 24 hr in 100 μl of media. 3-fold serial dilutions of each test compound were prepared ranging from 20 μM to 1.02 nM. Cells were then treated with test compounds at various concentrations with a final concentration of 0.5% DMSO/well, and then incubated at 37° C./5% CO2 for 24 hr. 100 μl of CellTiter-Glo® Reagent (Promega Corporation, Madison, WI) was added to each well and processed according manufacturer's protocol. Results were analyzed and IC50-values were calculated in GraphPad 7 software.

ASPC-1 = assay: CellTiter-Glo Reagent cancer cell line proliferation assay, ASPC-1; format: cell-based; details: Homo sapiens, ASPC1; ASPC-1, KRAS(G12D) homozygous, 24 hr
Description: as §2, §3

KRAS(G12D)/SOS1 = target: T1, KRAS(G12D)/SOS1 (Homo sapiens, UniProt P01116, G12D); assay: KRAS(G12D)/SOS1 Homogeneous Time-Resolved Fluorescence (HTRF) Assay; format: binding; details: absence of GTP, 4° C., 3 hr
T1 construct: purchased Cisbio 63ADK000CB16PEG
T1 sequence (P01116 1-188 isoform P01116-2 G12D): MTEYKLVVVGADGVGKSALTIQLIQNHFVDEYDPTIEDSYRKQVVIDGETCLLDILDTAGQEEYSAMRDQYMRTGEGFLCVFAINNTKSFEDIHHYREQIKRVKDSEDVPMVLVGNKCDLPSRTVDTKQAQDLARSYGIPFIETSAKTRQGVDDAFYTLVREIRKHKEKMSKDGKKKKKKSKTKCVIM
Method: 3-fold serial dilutions of each test compound were prepared ranging from 20 μM to 1.02 nM. The test compound was mixed and incubated with reaction components, incubated in a sealed plate at 4° C. for 3 hr and fluorescence was measured using a PerkinElmer Envision plate reader. The % inhibition and IC50 values (the concentration at which 50% of the maximal inhibition occurs) were calculated and plotted using GraphPad Prism 7 software.

SW1990 = assay: CellTiter-Glo Reagent cancer cell line proliferation assay, SW1990; format: cell-based; details: Homo sapiens; SW1990, KRAS(G12D) homozygous, 24 hr
Description: as §2, §3

GP2D = assay: CellTiter-Glo Reagent cancer cell line proliferation assay, GP2D; format: cell-based; details: Homo sapiens, KRAS(G12D) heterozygous, 24 hr
How it was run: as §1

KRAS(G12D) = KRAS(G12D) (Homo sapiens, UniProt P01116, G12D); assay: cell-based; format: cell-based; parameters: Cell lines SW1990 and GP2D that express KRAS(G12D); host or cells: SW1990; details: for Dmax: SW1990, read-out: WB data SW1990 DMax; for DC50: read-out: WB data SW1990 DC50, SW1990, KRAS degradation, 24 hr
Chain of KRAS(G12D) (P01116 1-188 isoform P01116-2 G12D): as above
How it was run: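 Cancer cell lines treated with compound, lysed in RIPA with protease/phosphatase inhibitors, and protein-normalized lysates resolved by SDS-PAGE and western blotted with anti-KRAS and anti-β-actin. Fluorescence imaging quantified KRAS levels; DC50 and DCmax derived from concentration-response fits.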

IC50 (AGS) [nM]	IC50 (A427) [nM]	IC50 (ASPC-1) [nM]	IC50 (KRAS(G12D)/SOS1) [nM]	IC50 (SW1990) [nM]	IC50 (GP2D) [nM]	Dmax (KRAS(G12D)) [%]	DC50 (KRAS(G12D)) [nM]	Compound
100 to 1000	100 to 1000	100 to 1000	< 100	100 to 1000	–	–	–	COc1nc(-c2cc(O)cc3ccccc23)c(F)c2nc(OCC3(CN4CCN(CC5CCN(c6ccc7c(c6)C(=O)N(C6CCC(=O)NC6=O)C7=O)CC5)CC4)CC3)nc(C3CC4CCC(C3)N4)c12 (centres unmarked) [Compound 36]
< 100	> 1000	100 to 1000	< 100	100 to 1000	< 100	10 to 50	100 to 1000	C#Cc1c(F)ccc2cc(O)cc(-c3nc(OC)c4c(N5CC6CCC(C5)N6C(=O)C(F)(F)F)nc(OCC5(CN6CCC(CN7CCN(c8ccc9c(c8)CN(C8CCC(=O)NC8=O)C9=O)CC7)CC6)CC5)nc4c3F)c12 (centres unmarked) [Compound 63]
> 1000	> 1000	–	< 100	–	–	–	–	C#Cc1cccc2cccc(-c3ncc4c(N5CC6CCC(C5)N6)nc(OC[C@H]5CC[C@@H](CN6CCN(CC7CCN(c8cc9c(cc8F)C(=O)C(N8CCC(=O)NC8=O)C9=O)CC7)CC6)N5C)nc4c3F)c12 (some centres unmarked) [Compound 25]
< 100	100 to 1000	–	< 100	100 to 1000	–	10 to 50	> 1000	C#Cc1cccc2cc(O)cc(-c3ncc4c(N5CC6CCC(C5)N6)nc(OCC5(CN6CCN(CC7CCN(c8ccc9c(c8)C(=O)N(C8CCC(=O)N(C)C8=O)C9=O)CC7)CC6)CC5)nc4c3F)c12 (centres unmarked) [Compound 42]
< 100	< 100	< 100	< 100	< 100	< 100	> 50	< 100	C#Cc1c(F)ccc2cc(O)cc(-c3ncc4c(N5CC6CCC(C5)N6)nc(OCC5(CN6CCN(CC7CCN(c8ccc9c(c8)CN(C8CCC(=O)NC8=O)C9=O)CC7)CC6)CC5)nc4c3F)c12 (centres unmarked) [Compound 43]
> 1000	> 1000	–	< 100	–	–	–	–	CN1C[C@H](N2CCC(C(=O)NCCOc3ccc4c(c3)C(=O)N(C3CCC(=O)NC3=O)C4=O)CC2)C[C@@H]1COc1nc(N2CC3CCC(C2)N3)c2cnc(-c3cc(O)cc4ccccc34)c(F)c2n1 (some centres unmarked) [Compound 23]
< 100	100 to 1000	< 100	< 100	< 100	< 100	> 50	< 100	C#Cc1cccc2cc(O)cc(-c3ncc4c(N5CC6CCC(C5)N6)nc(OCC5(CN6CCN(CC7CCN(c8ccc9c(c8)n(C)c(=O)n9C8CCC(=O)NC8=O)CC7)CC6)CC5)nc4c3F)c12 (centres unmarked) [Compound 64]
